Experiment: in vitro
Conditions: human, hela cells, % viability

Row | Compound | viability at 28.5 h, 10 µM [%]
1 | CC(=O)NCc1cccc(-c2cncc(C(=O)Nc3ccc4c(c3)OCCO4)c2)c1 [CBK161009T] | 82.1
2 | CCc1ccc(CNC(=O)Cn2nnc(-c3ccc(CNC4CCOCC4)cc3)n2)cc1 [CBK161029C] | 89.8
3 | CCSCCN1CCC(Oc2nccnc2OCc2ccc(Br)cc2F)CC1 [CBK161087] | 98.7
4 | NC(=O)c1cccc(CN2CCOC3(CCN(C(=O)OCc4ccccc4)CC3)C2)c1 [CBK161100T] | 90.4
5 | COc1cc(OC)nc(CN2CCOC3(CCN(C(=O)OCc4ccccc4)CC3)C2)n1 [CBK161101T] | 96.2
6 | N#Cc1ccc(CN2CCOC3(CCN(C(=O)OCc4ccccc4)CC3)C2)cc1 [CBK161103T] | 99.1
7 | O=C(OCc1ccccc1)N1CCC2(CC1)CN(c1ccc(C(F)(F)F)cn1)CCO2 [CBK161116T] | 95.8
8 | COc1ccc([N+](=O)[O-])c(N2CCOC3(CCN(C(=O)OCc4ccccc4)CC3)C2)n1 [CBK161117T] | 103
9 | O=C(c1ccc2ccccc2c1)N1CCC2(CC1)CN(Cc1ccccc1)CCO2 [CBK161118A] | 94.1
10 | CS(=O)(=O)c1ccc(CN2CCOC3(CCN(C(=O)c4ccc5ccccc5c4)CC3)C2)cc1 [CBK161122A] | 104
11 | Cc1cc(N2CCOC3(CCN(C(=O)c4ccc5ccccc5c4)CC3)C2)nc(N)n1 [CBK161125A] | 93.2
12 | Fc1cc(Br)ccc1COc1cccnc1Cl [CBK161281] | 68.4
13 | O=C(O)C1CCCN(C(=O)NCC2COc3ccccc3O2)C1 (centres unmarked) [CBK161342] | 121
14 | CSCCCNC(=O)N1CCCC(C(=O)O)C1 (centres unmarked) [CBK161343] | 92.1
15 | O=C(O)C1CCCN(C(=O)NCc2cccc(C(F)(F)F)c2)C1 (centres unmarked) [CBK161345] | 94.5
16 | COc1ccc2[nH]cc(CCNC(=O)N3CCCC(C(=O)O)C3)c2c1 (centres unmarked) [CBK161351] | 108
17 | N#Cc1ccc(CNC(=O)N2CCCC(C(=O)O)C2)cc1 (centres unmarked) [CBK161352] | 89.5
18 | COc1ccc(CCNC(=O)N2CCCC(C(=O)O)C2)cc1OC (centres unmarked) [CBK161354] | 100
19 | O=C(O)C1CCCN(C(=O)NCc2c(Cl)cccc2Cl)C1 (centres unmarked) [CBK161362] | 90
20 | O=C(O)C1CCCN1C(=O)NCc1c(Cl)cccc1Cl (centres unmarked) [CBK161383] | 88.1
21 | COc1cc(CNC(=O)N2CCC(C(=O)O)CC2)cc(OC)c1OC [CBK161401] | 81.5

Row | Compound | viability at 28.5 h, 10 µM [%]
22 | COc1ccc(CCNC(=O)N2CCC(C(=O)O)CC2)cc1OC [CBK161404] | 110
23 | O=C(O)C1CCN(C(=O)Nc2ccccc2Cl)CC1 [CBK161407] | 106
24 | CCc1ccc(OCC(O)Cn2nnc(-c3ccc(CN4CCC(C)CC4)cc3)n2)cc1 (centres unmarked) [CBK161437T] | 111
25 | CC(=O)NCc1cccc(-c2cc(CO)cnc2-c2ccc(Cl)cc2)c1 [CBK161445] | 94.6
26 | CCN(NC(=O)c1cc2cccc(OC)c2o1)c1ccc(C)cc1 [CBK161484] | 106
27 | CCOC(=O)CCNC(=O)C1(c2ccc(OC)cc2)CC1 [CBK161490] | 87.3
28 | CCN(NC(=O)c1ccccc1-n1cccc1)c1ccc(C)cc1 [CBK161507] | 110
29 | CC(C)c1ccc(/C=C/C(=O)NCc2ccc(NS(C)(=O)=O)cc2)cc1 [CBK161512] | 97.8
30 | CS(=O)(=O)c1ccc(CNC(=O)C2(c3ccccc3)CCCC2)cc1 [CBK161524] | 96.3
31 | CS(=O)(=O)Nc1ccc(CNC(=O)C2(c3ccccc3)CCCC2)cc1 [CBK161525] | 101
32 | O=C(c1ccccc1)c1ccc(CNC(=O)C2(c3ccccc3)CCCC2)cc1 [CBK161526] | 87.6
33 | N#CCCCN1CCC(Oc2nccnc2OCc2ccc(-c3ccccc3)cc2)CC1 [CBK161566] | 95.4
34 | N#CCCCN1CCC(Oc2nccnc2OCc2cccc(OCc3ccccc3)c2)CC1 [CBK161572] | 97.5
35 | Cc1cc(C)c(COc2nccnc2OC2CCN(CCCC#N)CC2)c(C)c1 [CBK161575] | 91.6
36 | CC(=O)NCCOc1nccnc1OCc1ccc(Cl)c(Cl)c1 [CBK161582] | 96.4
37 | CCCCOc1ccc(Oc2ncc(C(F)(F)F)cc2Cl)cc1 [CBK161629] | 94.4
38 | N#CCCc1ccc(Oc2ncc(C(F)(F)F)cc2Cl)cc1 [CBK161635] | 106
39 | OCCc1ccc(Oc2ncc(C(F)(F)F)cc2Cl)cc1 [CBK161643] | 94.6
40 | CN(C(=O)c1cccs1)c1ccc(Oc2ncc(C(F)(F)F)cc2Cl)cc1 [CBK161654] | 89.6
41 | O=C(C(CO)c1ccccc1)N1CCC2(CCN(CCCCOc3ccccc3)C2)C1 (centres unmarked) [CBK161722] | 90
42 | CC(=O)NCc1cccc(-c2cc(OCC3COc4ccccc4O3)cnc2C)c1 (centres unmarked) [CBK161723A] | 112

Row | Compound | viability at 28.5 h, 10 µM [%]
43 | O=C(Nc1cccc(Oc2ccccc2)c1)c1ccc2[nH]ccc2c1 [CBK161728] | 97.5
44 | CS(=O)(=O)Nc1ccc(CNC(=O)c2ccc3[nH]ccc3c2)cc1 [CBK161747] | 93.5
45 | O=C(Cc1cc(F)c(F)c(F)c1)Nc1cnccn1 [CBK161764] | 90.1
46 | CS(=O)(=O)c1ccc(Cn2ccnc(OC3CCN(C(=O)c4ccc(C#N)cc4)CC3)c2=O)cc1 [CBK161804] | 92.4
47 | CS(=O)(=O)c1ccc(Cn2ccnc(OC3CCN(C(=O)c4cccc(C#N)c4)CC3)c2=O)cc1 [CBK161810] | 105
48 | Cc1cc(C(=O)N2CCC(Oc3nccn(Cc4ccc(S(C)(=O)=O)cc4)c3=O)CC2)ccc1Cl [CBK161883] | 92.6
49 | COC1CCC(C(=O)N2CCC(COc3ccc(-c4ccc(S(C)(=O)=O)cc4)cn3)CC2)CC1 (centres unmarked) [CBK161995] | 80.3
50 | COc1cccc(Cc2c(C)nc3c(C(=O)NCCCN4CCCC4=O)cnn3c2C)c1 [CBK162055] | 111
51 | COc1cccc(Cc2c(C)nc3c(C(=O)NCC4COc5ccccc5O4)cnn3c2C)c1 (centres unmarked) [CBK162064] | 111
52 | COCCCNC(=O)c1cnn2c(C)c(Cc3cccc(F)c3)c(C)nc12 [CBK162126] | 116
53 | CCc1c(C)nc2c(C(=O)NCCCN3CCCC3=O)cnn2c1C [CBK162128] | 96.2
54 | CCc1c(C)nc2c(C(=O)NCCOC)cnn2c1C [CBK162143] | 93.9
55 | CCc1c(C)nc2c(C(=O)N3CCCC3COC)cnn2c1C (centres unmarked) [CBK162146] | 92.1
56 | Cc1nc2c(C(=O)NCCCN3CCCC3=O)cnn2c(C)c1Cc1cccnc1 [CBK162151] | 108
57 | CCOCCCNC(=O)c1cnn2c(C)c(Cc3cccnc3)c(C)nc12 [CBK162152] | 100
58 | Cc1nc2c(C(=O)NCCC3OCCO3)cnn2c(C)c1Cc1cccnc1 [CBK162159] | 108
59 | Cc1nc2c(C(=O)NCC3CCCO3)cnn2c(C)c1Cc1cccnc1 (centres unmarked) [CBK162160] | 85.8
60 | COc1ccc(Cc2c(C)nc3c(C(=O)NCC4CCCO4)cnn3c2C)cc1 (centres unmarked) [CBK162183] | 88.5
61 | Cc1nc2c(C(=O)N3CCOCC3)cnn2c(C)c1Cc1ccccc1 [CBK162201] | 113
62 | Cc1nc2c(C(=O)NCC(F)(F)F)cnn2c(C)c1Cc1ccccc1 [CBK162208] | 94.8

Source: PMC12040169 (PLOS Biology, 2025)
